Assays:
CYP2C9 = target: T1, CYP2C9 (Homo sapiens, UniProt P11712); test: Cocktail drug-drug interaction study: tolbutamide pharmacokinetics as probe of CYP2C9 activity; format: in vivo; conditions: co-administration of 500 mg Compound A with tolbutamide 500 mg
T1 construct: from tissue
Description: 24 healthy male subjects aged between 20 and 43 years received the following dosing regimens in random order: • 1.
The three treatments were separated by a wash-out period of 7 to 21 days.

thrombin = thrombin (Homo sapiens, UniProt P00734); conditions: free amidine metabolite of Compound A; cited from earlier work

T1 sequence (P11712 whole entry): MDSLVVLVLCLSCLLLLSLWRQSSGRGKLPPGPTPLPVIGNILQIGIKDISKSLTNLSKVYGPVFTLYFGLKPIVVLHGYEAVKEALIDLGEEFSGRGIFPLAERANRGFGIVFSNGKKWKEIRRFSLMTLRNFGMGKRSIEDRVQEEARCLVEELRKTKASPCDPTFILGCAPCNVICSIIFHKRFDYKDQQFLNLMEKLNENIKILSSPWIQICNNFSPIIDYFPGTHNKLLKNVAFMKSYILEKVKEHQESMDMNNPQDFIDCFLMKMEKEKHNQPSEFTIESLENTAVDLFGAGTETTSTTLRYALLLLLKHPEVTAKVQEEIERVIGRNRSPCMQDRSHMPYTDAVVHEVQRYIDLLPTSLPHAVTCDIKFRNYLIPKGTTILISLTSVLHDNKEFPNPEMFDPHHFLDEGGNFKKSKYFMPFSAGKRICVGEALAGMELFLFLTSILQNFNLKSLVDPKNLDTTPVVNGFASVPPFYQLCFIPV

Structure (SMILES)	effect on CYP2C9 activity (influence on the pharmacokinetics of tolbutamide) (CYP2C9)	inhibition of thrombin (thrombin)
CO/N=C(\N)c1ccc(CNC(=O)[C@@H]2CCN2C(=O)[C@H](O)c2cc(Cl)cc(OC(F)F)c2)cc1 [Compound A, Ph(3-Cl)(5-OCHF2)—(R)CH(OH)C(O)—(S)Aze-Pab(OMe)]	no effect	–
N=C(N)c1ccc(CNC(=O)[C@@H]2CCN2C(=O)[C@H](O)c2cc(Cl)cc(OC(F)F)c2)cc1 [Compound C, Ph(3-Cl)(5-OCHF2)—(R)CH(OH)C(O)—(S)Aze-Pab]	–	has been found to inhibit thrombin

From patent US20090061000A1, “PHARMACEUTICAL FORMULATION USE 030” (AstraZeneca AB, priority 2007, published 2009)
